pEC50, pKi: −log10 of the molar value.
Columns and labels:
[1] = Metabolites in human plasma after oral psilocybin (reanalysed study samples); conditions: for Tmax: human, plasma, po, 30 mg
[2] = tested on: human liver microsomes (HLM); assay: Psilocin incubation with human liver microsomes (CYP inhibition assay); format: in vitro ADME; conditions: for metabolite concentration formed from psilocin / psilocin concentration (mean ± SD): 1,000 nM psilocin with HLM; for metabolite concentration formed from psilocin: 240 min incubation; for psilocin concentration: absence of HLM
Experimental: (§1) Corning UltraPool human liver microsomes (HLM) 150 (20 mg/mL), human intestinal microsomes (HIM) pool (10 mg/mL) as well as recombinant human CYP enzymes (with P450 oxidoreductase, OR) including CYP1A2+OR (0.5 nmol), CYP2B6+OR (0.5 nmol), CYP2C8+OR (1.0 nmol), CYP2C9*1+OR (1 nmol), CYP2C19+OR (0.5 nmol), CYP2D6*1+OR (0.5 nmol), CYP2E1+OR + cytochrome b5 (1 nmol), CYP3A4+OR + cytochrome b5 (0.5 nmol), MAO-A (5 mg/mL), MAO-B (5 mg/mL), and UGT1A10 (5 mg/mL) were purchased from Corning Life Sciences B.V (Amsterdam, Netherlands). All microsomes and recombinant enzyme solutions were aliquoted and stored at −80 °C until further use.
The total volume of the reaction mixture was 500 μL. […] Samples were either directly analyzed by liquid chromatography tandem mass spectrometry (LC-MS/MS) or briefly stored at −20°C until analysis.

[3] = molecular target: T1, MAO-A in human liver microsomes (HLM) (Homo sapiens, UniProt P21397); assay: Monoamine oxidase A inhibition in human liver microsomes; format: in vitro ADME; conditions: for biotransformation on incubation with HLM: 1,000 nM 4-HIAA or 4-HTP incubated with HLM; for metabolite concentration formed from psilocin (mean ± SD) / metabolite formation from psilocin in presence of clorgyline: 1,000 nM psilocin; for metabolite concentration formed from psilocin (mean ± SD): HLM alone, t = 240 min; for metabolite formation from psilocin in presence of clorgyline: HLM with MAO-A inhibitor clorgyline
T1 construct: tissue Corning Life Sciences B.V; host or cells: pooled human liver microsomes
T1 sequence (P21397 1-527): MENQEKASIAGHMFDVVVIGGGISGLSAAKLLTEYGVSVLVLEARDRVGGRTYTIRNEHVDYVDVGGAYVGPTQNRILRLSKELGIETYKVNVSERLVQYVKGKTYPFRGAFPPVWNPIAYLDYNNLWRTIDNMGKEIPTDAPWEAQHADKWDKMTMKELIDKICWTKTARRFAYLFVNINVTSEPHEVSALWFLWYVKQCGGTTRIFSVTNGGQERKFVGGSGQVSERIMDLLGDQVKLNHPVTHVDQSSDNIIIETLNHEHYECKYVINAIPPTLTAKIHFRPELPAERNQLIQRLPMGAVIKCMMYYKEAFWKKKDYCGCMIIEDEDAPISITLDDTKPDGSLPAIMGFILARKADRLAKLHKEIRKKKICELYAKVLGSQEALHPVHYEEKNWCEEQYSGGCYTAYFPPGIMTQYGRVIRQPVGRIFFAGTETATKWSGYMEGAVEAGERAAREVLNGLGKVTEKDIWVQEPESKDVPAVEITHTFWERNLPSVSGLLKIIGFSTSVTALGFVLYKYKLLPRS

recombinant MAO-B = molecular target: T2, recombinant MAO-B (Homo sapiens, UniProt P27338); assay: Incubation with recombinant MAO-B enzymes; format: in vitro ADME; conditions: 1,000 nM psilocin, rec. MAO-B
T2 construct: purchased Corning Life Sciences B.V
T2 sequence (P27338 1-520): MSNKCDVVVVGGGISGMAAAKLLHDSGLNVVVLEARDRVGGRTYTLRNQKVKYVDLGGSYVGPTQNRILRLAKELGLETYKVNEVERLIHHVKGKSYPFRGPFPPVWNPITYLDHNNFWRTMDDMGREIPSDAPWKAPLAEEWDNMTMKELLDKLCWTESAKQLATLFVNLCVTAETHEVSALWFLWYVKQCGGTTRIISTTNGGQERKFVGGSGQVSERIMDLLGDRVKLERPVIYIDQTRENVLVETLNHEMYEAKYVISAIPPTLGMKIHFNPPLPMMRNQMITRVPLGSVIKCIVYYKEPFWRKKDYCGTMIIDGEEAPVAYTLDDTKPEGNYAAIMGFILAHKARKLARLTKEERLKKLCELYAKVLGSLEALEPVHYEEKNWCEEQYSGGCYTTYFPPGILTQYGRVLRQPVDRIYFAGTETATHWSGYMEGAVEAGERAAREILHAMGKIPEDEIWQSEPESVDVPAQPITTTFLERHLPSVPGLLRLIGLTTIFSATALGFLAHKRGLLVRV
Experimental: as §1
(§2) The MAO inhibition assay was based on the assay described in section 2.5.1 and performed identically if not otherwise stated.

human 5-HT2B receptor = molecular target: T3, human 5-HT2B receptor (Homo sapiens, UniProt P41595); assay: 5-HT activation potency (IP1 accumulation), 5-HT2B; format: cell-based; conditions: NIH/3T3 cells, read-out: h5-HT2B Activation potency EC50 ± SD
T3 construct: expressed in transfected cells; host or cells: NIH/3T3
T3 sequence (P41595 whole entry): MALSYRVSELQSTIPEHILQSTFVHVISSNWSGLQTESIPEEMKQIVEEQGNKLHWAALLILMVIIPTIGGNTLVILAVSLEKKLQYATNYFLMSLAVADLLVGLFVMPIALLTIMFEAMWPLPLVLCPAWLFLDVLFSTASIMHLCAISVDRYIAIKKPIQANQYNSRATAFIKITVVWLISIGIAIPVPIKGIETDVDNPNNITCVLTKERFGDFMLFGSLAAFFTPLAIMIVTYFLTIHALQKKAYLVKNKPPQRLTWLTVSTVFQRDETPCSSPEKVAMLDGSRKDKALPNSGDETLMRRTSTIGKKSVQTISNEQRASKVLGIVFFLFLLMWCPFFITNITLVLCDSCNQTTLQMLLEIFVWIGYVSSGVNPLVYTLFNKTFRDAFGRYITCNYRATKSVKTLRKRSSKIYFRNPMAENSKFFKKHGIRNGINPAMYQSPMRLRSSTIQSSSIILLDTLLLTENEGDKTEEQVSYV
Experimental: (§3) NIH/3T3 cells stably expressing the human 5-HT1A, 5-HT2A, and 5-HT2B receptors were seeded at a density of 3,000 cells (5-HT1A and 5-HT2A) or 4,000 cells (5-HT2B) in 384-well plates using Opti-MEM medium from Gibco (ThermoFisher, Life Technologies, Zug, Switzerland). Subsequently, the test compounds were introduced, and the plates were incubated for 90 min at 37°C, followed by a 60 min incubation with Anti-IP1-Cryptate and IP1-d2 at room temperature. The formation of stimulated IP1 was quantified by homogeneous time-resolved fluorescence (HTRF) measurements using a BioTek Synergy H1 microplate reader (Agilent Technologies, Basel, Switzerland). The obtained raw data for receptor activation were subjected to normalization, wherein the baseline signal was set at 0%, and the maximum signal stimulated by 5-HT at the specific receptor was established as 100%.

human 5-HT2C receptor = molecular target: T4, human 5-HT2C receptor (Homo sapiens, UniProt P28335); assay: biochemical; conditions: HEK 293 membranes, [3H]mesulergine; read-out: h5-HT2C Receptor binding Ki ± SD
T4 construct: expressed in transfected cells; host or cells: HEK 293 membrane preparations
T4 sequence (P28335 33-458): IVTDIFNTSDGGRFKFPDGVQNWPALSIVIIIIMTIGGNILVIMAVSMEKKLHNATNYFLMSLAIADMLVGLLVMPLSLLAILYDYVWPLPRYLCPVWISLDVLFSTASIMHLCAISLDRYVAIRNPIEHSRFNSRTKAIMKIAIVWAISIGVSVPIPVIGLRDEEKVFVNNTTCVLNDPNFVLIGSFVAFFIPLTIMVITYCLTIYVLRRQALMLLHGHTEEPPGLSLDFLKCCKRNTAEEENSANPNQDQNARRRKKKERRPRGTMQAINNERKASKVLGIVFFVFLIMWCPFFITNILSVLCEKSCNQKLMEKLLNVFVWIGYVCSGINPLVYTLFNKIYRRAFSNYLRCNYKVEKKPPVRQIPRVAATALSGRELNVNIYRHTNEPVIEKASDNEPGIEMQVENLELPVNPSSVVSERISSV

[4] = cited from earlier work; for fraction of administered psilocybin dose excreted in urine: oral psilocybin, within 24 h (time not stated for 4-HIAA)
recombinant MAO-A = molecular target: T5, recombinant MAO-A (Homo sapiens, UniProt P21397); assay: Incubation with recombinant MAO-A enzymes; format: in vitro ADME; conditions: for metabolite concentration formed from psilocin: 300 min; for metabolite formation from psilocin in presence of clorgyline: rec. MAO-A with clorgyline
T5 construct: purchased Corning Life Sciences B.V
T5 sequence (P21397 1-527): T1 sequence (P21397 1-527)
Experimental: as §1, §2

human 5-HT2A receptor [5] = molecular target: T6, human 5-HT2A receptor (Homo sapiens, UniProt P28223); assay: Radioligand receptor binding, 5-HT2A; design: expressed in transfected cells; host or cells: HEK 293 membrane preparations; conditions: HEK 293 membranes, [3H]ketanserin; read-out: h5-HT2A Receptor binding Ki ± SD
T6 sequence (P28223 whole entry): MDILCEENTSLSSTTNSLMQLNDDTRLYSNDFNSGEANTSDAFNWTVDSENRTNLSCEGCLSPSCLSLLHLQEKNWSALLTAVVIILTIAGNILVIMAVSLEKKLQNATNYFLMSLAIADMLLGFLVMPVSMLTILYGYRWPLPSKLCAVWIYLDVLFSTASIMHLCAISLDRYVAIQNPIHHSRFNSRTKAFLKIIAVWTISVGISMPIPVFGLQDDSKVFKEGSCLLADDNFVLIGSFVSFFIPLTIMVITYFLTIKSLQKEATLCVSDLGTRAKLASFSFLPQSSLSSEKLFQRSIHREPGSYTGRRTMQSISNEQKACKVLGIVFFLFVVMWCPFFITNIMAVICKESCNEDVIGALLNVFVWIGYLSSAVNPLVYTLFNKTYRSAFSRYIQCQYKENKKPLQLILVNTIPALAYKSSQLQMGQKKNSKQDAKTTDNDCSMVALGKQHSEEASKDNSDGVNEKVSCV

human 5-HT2A receptor [6] = molecular target: T6, human 5-HT2A receptor; assay: 5-HT activation potency (IP1 accumulation), 5-HT2A; format: cell-based; design: expressed in transfected cells; conditions: NIH/3T3 cells, read-out: h5-HT2A Activation potency EC50 ± SD
Experimental: as §3

[7] = humans, ref Holze et al., 2022a
[8] = humans, single oral dose of 25 mg psilocybin, ref Kolaczynska et al., 2021, Holze et al., 2022a

| Compound | Tmax [1] [h] | metabolite concentration formed from psilocin [2] [nM] | biotransformation on incubation with HLM [3] | metabolite concentration formed from psilocin (mean ± SD) [3] [nM] | metabolite formation from psilocin in presence of clorgyline [3] | formation of metabolite from psilocin (recombinant MAO-B) | pEC50 (human 5-HT2B receptor) | pKi (human 5-HT2C receptor) | fraction of administered psilocybin dose excreted in urine [4, 7] | metabolite concentration formed from psilocin (recombinant MAO-A; 1,000 nM psilocin, rec. MAO-A) [nM] | metabolite formation from psilocin in presence of clorgyline (recombinant MAO-A) | pKi (human 5-HT2A receptor [5]) | pEC50 (human 5-HT2A receptor [6]) | also measured |
| --- | --- | --- | --- | --- | --- | --- | --- | --- | --- | --- | --- | --- | --- | --- |
| O=C(O)Cc1c[nH]c2cccc(O)c12 [4-HIAA, 4-hydroxyindole-3-acetic acid] | ~2.5 | 43.0 ± 7.9 | did not lead to any biotransformation | 8.5 ± 3.8 | complete inhibition | did not produce any | < 5.00 | < 5.00 | Around 33% | 20.1 ± 2.8 | inhibited | < 5.00 | < 5.00 | maximal concentrations relative to psilocin (higher) ([4]; humans, ref Holze et al., 2022a, Becker et al., 2022): 4–5 fold |
| OCCc1c[nH]c2cccc(O)c12 [4-HTP, 4-hydroxytryptophol] |  | 43.4 ± 6.0 | did not lead to any biotransformation | 25.3 ± 6.0 | complete inhibition | did not produce any | < 5.00 | < 5.00 |  | 16.9 ± 2.9 | inhibited | < 5.00 | < 5.00 | detection in human plasma ([1]; 30 mg psilocybin p.o., n = 5): neither norpsilocin nor 4-HTP was detected |
| CN(C)CCc1c[nH]c2cccc(O)c12 [psilocin, 4-hydroxy-N,N-dimethyltryptamine] | ~2.5 |  |  |  |  |  |  |  | 1.5% |  |  |  |  | psilocin concentration (mean ± SD) ([2]; after 240 min): 829 ± 32 nM; psilocin concentration (mean ± SD) ([2]; start of incubation): 1,162 ± 146 nM; effect of targeted inhibition of specific CYP enzymes in HLM on psilocin degradation ([2]; 1,000 nM psilocin, HLM with selective CYP inhibitors): did not lead to a clear inhibition; psilocin concentration ([2]; t = 0 min): 1,141 ± 74 nM; psilocin concentration ([2]; t = 240 min): 1,096 ± 105 nM; change of psilocin concentration ([3]; 1,000 nM psilocin with HLM): did not visibly decrease; change of psilocin concentration (recombinant MAO-B): did not visibly decrease; time of peak plasma concentration ([4]; after oral administration, ref Griffiths et al., 2016, Johnson et al., 2017, Holze et al., 2022a): around 2 h; plasma elimination half-life in humans ([4]; humans, no reference given): approximately 2 h; elimination half-life (t1/2) [4, 8]: 2 to 3 h; psilocin plasma concentrations [4, 8]: 15 to 20 ng/mL; change of psilocin concentration (recombinant MAO-A; 1,000 nM psilocin, rec. MAO-A): did not visibly decrease |

From publication PMC11089204 (Frontiers in Pharmacology, 2024)
